Converted amounts (≈) assume the structure as drawn. Where two headings read alike, the source gives them in different places. Where a SMILES comes first, the peptide text is derived from it.
Experiments:
S. gordonii Challis = experiment: microbe, parasite or virus in culture; type: cell-based, Streptococcus gordonii
From the text: (§1) The bacteria used in this study included Streptococcus mutans ATCC10449, Streptococcus mutans AU 159, Streptococcus mutans GS-5, Streptococcus mutans GS-5 mutant (^gtf BCD), Streptococcus gordonii Challis, Porphyromonas gingivalis W50, Porphyromonas gingivalis 381, A. actinomycetemcomitans NCTC 9710, Pseudomonas aeruginosa ATCC 17648, and Escherichia coli HB101. One quarter strength (25%) of brain heart infusion broth (BHI, DIFCO Laboratories, Detroit, Mich.) was used for the growth of S. mutans, S. gordonii, A. actinomycetemcomitans, Ps. aeruginosa, and E. coli. For growth of P. gingivalis, tryptic soy broth-yeast extract medium (TSBY, DIFCO Laboratories, Detroit, Mich.) supplemented with cysteine hydrochloride (0.05%), menadione (0.02 μg/ml), hemin (5 μg/ml), and potassium nitrate (0.02%) was used. All bacteria were cultured at 37° C.; Ps. aeruginosa and E. coli were grown aerobically, and the other bacteria, anaerobically. To prepare bacterial cell suspension for antibacterial activity assays, each overnight culture was harvested by centrifuge (3783 g, 10 min), washed once with 10 mM sodium phosphate-buffered saline (PBS, pH 7.2), resuspended in PBS and adjusted to a concentration of 1×10^6 cells/mL.
(§2) MICs of the peptides were determined by broth microdilution method as previously described (5). Briefly, two-fold serial dilutions of each peptide were prepared with 25% BHI medium at a volume of 200 μl per well in 96-well flat-bottom microtiter plates (Costar, Cambridge, Mass.). The final concentration of the peptides ranged from 0.78 to 100 μM, and chlorhexidine (CHX), used as a positive control, from 20 to 0.16 μM (10 to 0.078 μg/mL). The microtiter plate was inoculated with bacterial cell suspension with final concentration of 5×10^6 CFU/mL for P. gingivalis and 5×10^5 CFU/mL for the other bacterial species. After incubation at 37° C. for 48 h, the absorbance was measured at 595 nm by using a microplate reader (Model 3550, Bio-Rad, Japan) to assess the cell growth. […] The MIC value represents the median of at least three independent experiments. The minimal bactericidal concentration (MBC) was determined as follows. Aliquot (100 μl) of cell suspension was taken from two wells above MIC, centrifuged, and washed three times with PBS. Then each cell suspension was plated on TSBY agar plate, and bacterial cells were enumerated after incubation at 37° C. for 48 h. The MBC was defined as the lowest concentration of the peptide at which more than 99.9% of cells were killed compared to non-treated control.

P. gingivalis = experiment: microbe, parasite or virus in culture; type: cell-based, Porphyromonas gingivalis
From the text: as §1, §2

[1] = tested on: Ps. aeruginosa ATCC 17648; experiment: microbe, parasite or virus in culture; type: cell-based, Pseudomonas aeruginosa; conditions: ATCC 17648
From the text: as §1, §2

[2] = tested on: S. mutans GS-5 1-day biofilm; type: cell-based, Streptococcus mutans
Method: FIG. 12. Effect of peptides on 1-day biofilm of S. mutans. One-day mature biofilm was prepared as described above. BHI medium supplemented with 1% sucrose (BHIS) with peptides, prepared in another microtiter plate, was then transferred to the biofilm plate. After further incubation at 37° C. for 24 h, the biofilm was fixed, stained, and quantified as describe above. Data represents mean and SD of two independent tests performed in duplicated. Empty bar: growth, solid bar: biofilm.
To examine the effects of the peptides on 1-day mature biofilm, S. mutans GS-5 was inoculated into the wells of another polystyrene microtiter plate containing BHIS at a volume of 200 μl per well. After incubation at 37° C. for 24 h, the culture supernatants from each well were decanted and planktonic cells were removed by washing with PBS. BHIS containing 0.78 to 100 μM peptides, prepared in another microtiter plate, was then transferred to the 1-day biofilm plate, and further incubated at 37° C. for one day. The biofilm was fixed, stained, and quantified as describe above.

S. mutans GS-5 = experiment: Time-kill assay; type: cell-based, Streptococcus mutans; conditions: after 4 h incubation, each agent at its MIC
Method: FIG. 10. Time-Killing curves for S. mutans. […] Control (▪), MUC7 12-mer-L (Δ), MUC7 12-mer-D (□), MUC7 20-mer (▴), Hsn5 12-mer (×), magainin II (●), chlorhexidine (◯).
For the peptides MUC7 12-mer-L, MUC7 12-mer-D, and MUC7 20-mer, time-kill kinetic studies against S. mutans were performed by the broth macrodilution method. S. mutans GS-5 (1×10^6 CFU/ml) and antibacterial agens (find concentrations of 12.5 μM for each peptide, and 2 μM for CHX; their MICs) were incubated in 25% BHI at 37° C. At the time of 0, 1, 2, 4, 8, and 24 h, samples were taken and viable counts determined as follows: The samples were serially diluted (10^−1 to 10^−4) in sterile 10 mM PBS (pH 7.2) and 50 μl aliquots were plated onto TSBY agar. The plates were incubated anaerobically at 37° C. for 48 h, followed by enumerating the CFU. Killing curves were constructed by plotting the log10 CFU per milliliter versus time over 24 h. All assays were done in duplicate on at least two occasions.

[3] = tested on: A. actinomycetemcomitans NCTC 9710; experiment: microbe, parasite or virus in culture; type: cell-based
From the text: as §1, §2

S. mutans = experiment: microbe, parasite or virus in culture; conditions: median of four strains
From the text: as §1, §2

S. mutans GS-5 biofilm = type: cell-based, Streptococcus mutans
Method: FIG. 11. Effect of peptides on the biofilm formation of S. mutans. The bacterial cells (5×10^5 cfu ml^−1) were inoculated in 96-well microtiter plate containing 25% BHIS medium with different concentration of each agent. Culture without agent was used as no treatment control. After incubation at 37° C. for 24 h, absorbance at 595 nm was recorded to assess the cell growth. Biofilm assay was performed by discarding the supernatants, washing with PBS, fixing with methanol, and staining with CV. The absorbance at 570 nm was recorded to assess the amount of biofilm. The activity was expressed as % of control. Data represents mean and SD of two independent tests with duplicates for each. Empty bar: growth, solid bar: biofilm.
The effect of the peptides on S. mutans in biofilm formation was examined by the microdilution method. This method is similar to the MIC assay for planktonic cells. Two-fold serial dilutions of each peptide were prepared in wells of polystyrene microtiter plates (Microtest tissue culture plate, 96 well, Falcon, Becton Dickinson and Company, N.J.) containing 25% BHI medium supplemented with 1% sucrose (BHIS) at a volume of 200 μl per well. The final concentration of the peptide ranged from 0.78 to 100 μM for each peptide. Chlorhexidine (CHX, 0.078 to 10 μg/mL) was used as the positive control, the medium without drug as the non-treated control, and the medium alone as the blank control. The cells suspension of S. mutans GS-5 was prepared as describe in MIC assay and 20 μl aliquot (final concentration of cells 5×10^5 CFU/mL) was inoculated to the wells of polystyrene microtiter plates. After incubation at 37° C. for 20 h, the culture supernatants from each well were decanted and planktonic cells were removed by washing with PBS, pH 7.2. The biofilm was fixed with methanol for 15 min and then air dried at room temperature. The biofilm was then stained with 0.1% (wt/vol) crystal violet (Sigma) for 5 min. and rinsed thoroughly with water until the control wells appeared colorless. Biofilm formation was quantified by the addition of 200 μl of 95% ethanol to each crystal violet-stained well. The plate was rocked at room temperature for 30 min and the absorbance at 595 nm (A595 nm) was determined with a microplate reader (BioRad Model 3550 Microplate Reader). Percentage of inhibition was calculated with the equation: (1−A595 nm of the test/A595nm of non-treated control)×100.

E. coli HB101 = experiment: microbe, parasite or virus in culture; type: cell-based, Escherichia coli
From the text: as §1, §2

SMILES: CC[C@H](C)[C@H](NC(=O)[C@H](Cc1ccccc1)NC(=O)[C@@H]1CCCN1C(=O)[C@H](CCCCN)NC(=O)[C@H](CCC(N)=O)NC(=O)[C@H](Cc1c[nH]cn1)NC(=O)[C@H](C)NC(=O)[C@@H](N)CC(C)C)C(=O)N[C@@H](CCCNC(=N)N)C(=O)N[C@@H](CCCCN)C(=O)N[C@@H](CO)C(=O)N[C@@H](Cc1ccc(O)cc1)C(=O)N[C@@H](CCCCN)C(=O)N[C@@H](CS)C(=O)N[C@@H](CC(C)C)C(=O)N[C@@H](Cc1c[nH]cn1)C(=O)N[C@@H](CCCCN)C(=O)N[C@@H](CCCNC(=N)N)C(=O)N[C@@H](CS)C(=O)N[C@@H](CCCNC(=N)N)C(=O)O [MUC7 20-mer] (H-LAHQKPFIRKSYKCLHKRCR-OH; N-terminus and C-terminus assumed)
- MBC (μM) (S. gordonii Challis): 25.0 µM (≈ 62.8 µg/mL)
- MBC (μg/ml) (S. gordonii Challis): 62.8 µg/mL (≈ 25 µM)
- MIC (μM) (S. gordonii Challis): 12.5 µM (≈ 31.4 µg/mL)
- MIC (μg/ml) (S. gordonii Challis): 31.4 µg/mL (≈ 12.5 µM)
- MIC (μM) (P. gingivalis): >100 µM
- MIC (μg/ml) (P. gingivalis): >251 µg/mL
- MBC (μM) [1]: >100 µM
- MBC (μg/ml) [1]: >251 µg/mL
- MIC (μM) [1]: >100 µM
- MIC (μg/ml) [1]: >251 µg/mL
- MBEC50 (μg/ml) [2]: 62 µg/mL
- MBEC50 (μM) ([2]; GS-5 1-day biofilm, 24 h): 25 µM
- eradication of 1-day developed biofilm ([2]; at or more than MBEC50): reduction of biofilm was observed
- reduction of the viable counts of S. mutans (S. mutans GS-5): 2 log10
- MBC (μg/ml) [3]: 251.3 µg/mL (≈ 100 µM)
- MIC (μg/ml) [3]: 251.3 µg/mL (≈ 100 µM)
- MBC (μM) ([3]; NCTC 9710): 100.0 µM (≈ 251 µg/mL)
- MIC (μM) ([3]; NCTC 9710): 100.0 µM (≈ 251 µg/mL)
- MBC (μM) (S. mutans): 12.5 µM (≈ 31.4 µg/mL)
- MBC (μg/ml) (S. mutans): 31.4 µg/mL (≈ 12.5 µM)
- MBIC50 (S. mutans GS-5 biofilm): 15.5 µg/mL
- MBIC50 (S. mutans GS-5 biofilm; GS-5 biofilm, 24 h): 6.25 µM
- MBC (μM) (E. coli HB101): 100.0 µM (≈ 251 µg/mL)
- MIC (μM) (E. coli HB101): 100.0 µM (≈ 251 µg/mL)

— patent US7271239B2, “D-isomers of antimicrobial peptide” (The Research Foundation of State University of New York, priority 2004, dated 2007)
